Measurements taken from paper PMC12134901, “Synthesis and characterization of thymol-derived phenoxy acetamide derivatives using DFT, molecular docking, and parasitological investigations” (Frontiers in Chemistry, 2025).
In brackets after ≈: the same amount, converted by molar mass.

Key:
IFN-γ = test: Serum IFN-γ in infected immunosuppressed mice (ELISA); type: in vivo; conditions: compounds 100 mg/kg/day, NTZ 250 mg/kg/day, orally 10 days, mean ± SD
Procedure: (§1) Serum concentrations of IFN-γ, TNF-α, IL-6, and IL-10 for each group were determined using an enzyme-linked immunosorbent assay reader, following the manufacturer’s protocol.

IL-10 = test: Serum IL-10 in infected immunosuppressed mice (ELISA); type: in vivo; conditions: compounds 100 mg/kg/day, NTZ 250 mg/kg/day, orally 10 days, mean ± SD
Procedure: as §1

RBCs = test: Hemolytic activity assay (cytotoxicity on RBCs); type: cell-based, rat; conditions: for IC50: Rattus norvegicus, read-out: IC50: sample concentration causing 50% hemolysis of RBCs, highest tested concentration 1,000 μg/mL
Procedure: (§2) The hemolytic effect of different compounds was evaluated using an existing method. ([Diaconu et al., 2020]). One milliliter of rat blood was collected, added to a sterile, screw-top EDTA tube, and centrifuged at 3000 rpm for 20 min. The upper layer was decanted, and the erythrocytes were rinsed several times with 10 mL of cooled isotonic and sterile phosphate-buffered saline (PBS) with a pH of 7.4. The rinsed cells were re-suspended in 20 mL sterile, cold PBS. The compounds (serial dilutions of 62.5–1,000 μg/mL in DMSO) were added to the erythrocyte solution and incubated for 60 min at 37°C. After centrifugation at 3000 rpm for 10 min, the absorbance of hemoglobin in the supernatant at 540 nm was used to calculate the hemolysis rate. Triton X-100 (0.1% in PBS) was used as a positive control, and the vehicle (PBS/DMSO) was used as the negative control. The hemolysis percentage was calculated as follows: Hemolysis percentage = (Ab of sample − Ab of negative control)/(Ab of positive control–Ab of negative control) × 100.

[1] = Hemolytic activity assay (cytotoxicity on RBCs); type: cell-based, rat; conditions: rat, washed erythrocytes (RBCs) suspended in PBS, 60 min at 37°C; for hemolysis at 60 min, 62.5 μg/mL: pH 7.4, 62.5 μg/mL; for hemolysis at 60 min, 125 μg/mL: pH 7.4, 125 μg/mL; for hemolysis at 60 min, 250 μg/mL: pH 7.4, 250 μg/mL; for hemolysis at 60 min, 500 μg/mL: pH 7.4, 500 μg/mL; for hemolysis at 60 min, 1000 μg/mL: pH 7.4, 1,000 μg/mL
Procedure: as §2

Cryptosporidium oocysts = test: Oocyst shedding in feces of Cryptosporidium-infected immunosuppressed mice (modified Ziehl–Neelsen stain); type: in vivo; conditions: compounds 100 mg/kg/day, NTZ 250 mg/kg/day, orally from 7th day post-infection for 10 days; for Shed oocysts/mg (Mean ± SD): immunosuppressed infected mice, feces 30 days post infection; for R%: reduction percent in oocyst count: vs infected non-treated G2
From the text: Cryptosporidium oocysts were obtained from the Parasitology Lab, Theodor Bilharz Research Institute, Giza, Egypt. Before infection, the oocysts were concentrated and counted in PBS using a hemocytometer. To maintain the organism cycle, five mice were inoculated with 3000–3500 oocysts using a tuberculin syringe in an intra-esophageal manner. ([Operario et al., 2015]).
Eighty healthy laboratory-bred adult male Swiss albino mice weighing 30–40 g were purchased from the animal house of the Faculty of Pharmacy, Pharos University. The animals were allowed to acclimatize for 1 week to the environmental conditions and housed in grouped plastic cages away from direct sunlight, under appropriate sanitary conditions and controlled temperature and humidity.
Immune suppression was induced and maintained throughout the experiment by administering dexamethasone (Dexazone, Al Kahira Pharmaceutical and Chemical Industries) through oral-gastric gavage at a dose of 0.25 mg/g/d for 14 consecutive days prior to inoculation with Cryptosporidium oocysts. ([Najoom et al., 2021]).
On day 15 of dexamethasone treatment, mice in the infected groups were inoculated with 10^4 Cryptosporidium oocysts using oral-gastric gavage. Before infection, oocysts were concentrated and counted in PBS using a hemocytometer.
Mice were distributed equally into eight groups of 10 each. At the end of the experiment, all animals were anesthetized for parasitological, ultrastructural, immunological, and biochemical studies. Mice grouping details are provided in the Supplementary Material.
On the final day of the experiment (30 days post infection), fresh fecal pellets from the infected mice in each group were collected to count the number of oocysts. Every sample was homogenized through suspension in double-distilled H2O. Subsequently, a fecal smear of 1 mg feces was prepared and stained using the modified Ziehl–Neelsen staining method. The stained fecal smear was examined microscopically, and the Cryptosporidium oocysts were counted. The number of oocysts per mg feces for each mouse was tabulated as the mean value for each group. All reported data represent the means of three independent trials.

TNF-α = test: Serum TNF-α in infected immunosuppressed mice (ELISA); type: in vivo; conditions: compounds 100 mg/kg/day, NTZ 250 mg/kg/day, orally 10 days, mean ± SD
Procedure: as §1

IL-6 = test: Serum IL-6 in infected immunosuppressed mice (ELISA); type: in vivo; conditions: compounds 100 mg/kg/day, NTZ 250 mg/kg/day, orally 10 days, mean ± SD
Procedure: as §1

[2] = tested on: small intestinal epithelial cells; test: TEM of small intestine sections of treated infected mice; type: in vivo
Procedure: The small intestine of each mouse was removed, cut into small pieces (1 mm^3), fixed in 2% glutaraldehyde in 0.1 M phosphate buffer, postfixed in 1% osmium tetraoxide for 2 h at 4°C, dehydrated, and embedded in Epon. Semi-thin and ultrathin sections (two samples per mouse) were prepared using an ultramicrotome. The sections were stained and analyzed using a transmission electron microscope.

Structure (SMILES)	IFN-γ (IFN-γ) [pg/mL]	IL-10 (IL-10) [pg/mL]	IC50 (RBCs) [µg/mL]	hemolysis at 60 min, 62.5 μg/mL [1] [%]	hemolysis at 60 min, 125 μg/mL [1] [%]	hemolysis at 60 min, 250 μg/mL [1] [%]	hemolysis at 60 min, 500 μg/mL [1] [%]	hemolysis at 60 min, 1000 μg/mL [1] [%]	Shed oocysts/mg (Mean ± SD) (Cryptosporidium oocysts) [oocysts/mg]	R%: reduction percent in oocyst count (Cryptosporidium oocysts) [%]	TNF-α (TNF-α) [pg/mL]	IL-6 (IL-6) [pg/mL]	Hemolysis % (RBCs; 1,000 μg/mL, 60 min at 37°C) [%]	TEM ultrastructure of small intestine sections [2]
Cc1ccc(C(C)C)c(OCC(=O)Nn2c(=O)c3cc4c(=O)n(NC(=O)COc5cc(C)ccc5C(C)C)c(=O)c4cc3c2=O)c1 [Compound 9, N,N'-(1,3,5,7-tetraoxopyrrolo[3,4-f]isoindole-2,6(1H,3H,5H,7H)-diyl)bis(2-(2-isopropyl-5-methylphenoxy)acetamide)]	534.2 ± 1.26	416.8 ± 0.63	1560 (≈ 2.48 mM)	0	0	0	0	35	15.4 ± 0.52	55	16.2 ± 1.03	215.7 ± 1.15	–	–
Cc1ccc(C(C)C)c(OCC(=O)NN2C(=O)c3cccc4cccc(c34)C2=O)c1 [Compound 7a, N-(1,3-dioxo-1H-benzo[de]isoquinolin-2(3H)-yl)-2-(2-isopropyl-5-methylphenoxy) acetamide]	608.8 ± 2.48	434.2 ± 1.13	6750 (≈ 16.8 mM)	0	0	0	5.02	6.18	16.8 ± 0.63	51	15.9 ± 0.87	237.4 ± 2.23	6.1873	–
Cc1ccc(C(C)C)c(OCC(=O)NN2C(=O)c3cccc4c(N)ccc(c34)C2=O)c1 [Compound 7b, N-(6-amino-1,3-dioxo-1H-benzo[de]isoquinolin-2(3H)-yl)-2-(2-isopropyl-5-methylphenoxy)acetamide]	415.2 ± 2.57	277.2 ± 1.47	–	0	0	0	0	0	11.5 ± 0.85	67	11.8 ± 1.03	143.1 ± 1.1	–	healthy microvilli (slightly disfigured and disarranged)
Cc1ccc(C(C)C)c(OCC(=O)NN2C(=O)c3ccc(C(=O)O)cc3C2=O)c1 [Compound 5b, 2-(2-(2-Isopropyl-5-methylphenoxy)acetamido)-1,3-dioxoisoindoline-5-carboxylic acid]	494.2 ± 3.15	387.8 ± 0.78	–	0	0	0	0	0	14.7 ± 0.67	57	13.7 ± 1.25	181.7 ± 149	–	–
Cc1ccc(C(C)C)c(OCC(=O)NN2C(=O)c3ccccc3C2=O)c1 [Compound 5a, N-(1,3-dioxoisoindolin-2-yl)-2-(2-isopropyl-5-methylphenoxy)acetamide]	477.8 ± 1.61	327.6 ± 1.34	–	0	0	0	0	0	13.2 ± 1.034	62	13.1 ± 0.99	176.8 ± 0.91	–	–
CC(=O)Oc1ccccc1C(=O)Nc1ncc([N+](=O)[O-])s1 [NTZ, nitazoxanide, reference compound]	422.1 ± 3.21	–	–	–	–	–	–	–	10.4 ± 0.51	70	7.8 ± 0.91	–	–	normal ultrastructure and regularly arranged apical microvilli with oval euchromatic nuclei
